Experimental data published in US9018388B2, “Pesticidal compositions and processes related thereto” (Dow AgroSciences LLC, priority 2012, dated 2015).

Columns and labels:
Format in all cases: in vivo
[1] = tested on: Beet Armyworm (BAW) (Spodoptera exigua); test: Bioassay on beet armyworm (BAW), 128-well diet tray assay; settings: Beet armyworm, 50 μg/cm^2; for pest or weed control at 50 µg/cm2, 50 µg/cm2: Spodoptera exigua, read-out: % Mortality BAW 50 μg/cm^2
Method in brief: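 Second-instar Spodoptera exigua larvae, one to five per well, on artificial diet treated with 50 μg/cm^2 compound in 90:10 acetone-water and dried, eight wells per compound. Held at 25 °C, 14:10 light-dark for five to seven days; percent mortality averaged over wells.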

[2] = tested on: Corn Earworm (CEW) (Helicoverpa zea); test: Bioassay on corn earworm (CEW), 128-well diet tray assay; settings: Corn earworm, 50 μg/cm^2; for pest or weed control at 50 µg/cm2, 50 µg/cm2: Helicoverpa zea, read-out: % Mortality CEW 50 μg/cm^2
Method in brief: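 Second-instar Helicoverpa zea larvae (one to five per well) placed on artificial diet treated with 50 μg/cm^2 compound in 90:10 acetone-water, dried, eight wells per compound. Held at 25 °C, 14:10 light-dark, five to seven days; percent mortality averaged over wells.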

[3] = tested on: Green Peach Aphid (GPA) (Myzus persicae); test: Bioassay on green peach aphid (GPA), foliar spray on cabbage seedlings; settings: 72 h, read-out: % Mortality GPA 200 ppm
Description: Bioassays on Green Peach Aphid (“GPA”) (Myzus persicae)
Certain molecules disclosed in this document were tested against GPA using procedures described in the following example. In the reporting of the results, the “GPA Rating Table” was used (See Table Section).
Cabbage seedlings grown in 3-inch pots, with 2-3 small (3-5 cm) true leaves, were used as test substrate. The seedlings were infested with 20-50 GPA (wingless adult and nymph stages) one day prior to chemical application. Four pots with individual seedlings were used for each treatment. Test compounds (2 mg) were dissolved in 2 mL of acetone/methanol (1:1) solvent, forming stock solutions of 1000 ppm test compound. The stock solutions were diluted 5× with 0.025% Tween 20 in H2O to obtain the solution at 200 ppm test compound. A hand-held aspirator-type sprayer was used for spraying a solution to both sides of […] leaves until runoff. Reference plants (solvent check) were sprayed with the diluent only containing 20% by volume of acetone/methanol (1:1) solvent. Treated plants were held in a holding room for three days at approximately 25° C. and ambient relative humidity (RH) prior to grading. Evaluation was conducted by counting the number of live aphids per plant under a microscope. Percent Control was measured by using Abbott's correction formula (W. S. Abbott, “A Method of Computing the Effectiveness of an Insecticide” J. Econ. Entomol. 18 (1925), pp. 265-267) as follows. Corrected%Control=100*(X−Y)/X • where • X=No. of live aphids on solvent check plants and • Y=No. of live aphids on treated plants
The results are indicated in the table entitled “Table 5: Biological Results” (See Table Section).

Row | Compound | % Mortality BAW 50 μg/cm^2 [1] | % Mortality CEW 50 μg/cm^2 [2] | pest or weed control at 200 ppm [3] | pest or weed control at 50 µg/cm2, 50 µg/cm2 [1] | pest or weed control at 50 µg/cm2, 50 µg/cm2 [2]
1 | COc1cc(C)c(/N=C(/N/N=C/c2ccc(-c3ncn(-c4ccc(OC(F)(F)F)cc4)n3)cc2)SCC(=O)O)c(C)c1.[Na+] [Compound 68C, 2-(((Z)-((4-methoxy-2,6-dimethylphenyl)imino)((E)-2-(4-(1-(4-(trifluoromethoxy)phenyl)-1H-1,2,4-triazol-3-yl)benzylidene)hydrazinyl)methyl)-thio)acetic acid sodium salt] | A (50-100) | A (50-100) | 0 to 80% |  | 
2 | Fc1cccc(F)c1N1CCCS/C1=N\N=C\c1ccc(-c2ncn(-c3ccc(OC(F)(F)F)cc3)n2)cc1 [Compound 189C] |  |  | 0 to 80% | 50 to 100% | 50 to 100%
3 | O=C1CS/C(=N\N=C\c2ccc(-c3ncn(-c4ccc(OC(F)(F)F)cc4)n3)cc2)N1c1ccccc1C1CC1 [Compound 112C] |  |  | 0 to 80% | 50 to 100% | 50 to 100%
4 | CC(=O)OCS/C(=N\c1c(C)cccc1C)N/N=C/c1ccc(-c2ncn(-c3ccc(OC(F)(F)F)cc3)n2)cc1 [Compound 31C] |  |  | 0 to 80% | 50 to 100% | 50 to 100%
5 | COc1ccc(C)cc1N1CCCS/C1=N\N=C\c1ccc(-c2ncn(-c3ccc(OC(F)(F)F)cc3)n2)cc1 [Compound 204C] |  |  | 0 to 80% | 50 to 100% | 50 to 100%
6 | O=C1CS/C(=N\N=C\c2ccc(-c3ncn(-c4ccc(OC(F)(F)F)cc4)n3)cc2)N1c1ccccc1-c1ccccc1 [Compound 96C] |  |  | 0 to 80% | 50 to 100% | 50 to 100%
7 | Cc1cccc(C)c1/N=C(/N/N=C/c1ccc(-c2ncn(-c3ccc(OC(F)(F)F)cc3)n2)cc1)SCc1ocnc1-c1ccccc1 [Compound 15C] |  |  | 80 to 100% | 50 to 100% | 50 to 100%
8 | CCc1cccc(C)c1N1/C(=N/N=C/c2ccc(-c3ncn(-c4ccc(OC(F)(F)F)cc4)n3)cc2)SCC1C (stereo not drawn) [Compound 156C] |  |  | 0 to 80% | 50 to 100% | 50 to 100%
9 | Cc1cccc(C)c1/N=C(/N/N=C/c1ccc(-c2ncn(-c3ccc(OC(F)(F)F)cc3)n2)cc1)SCc1c(F)cccc1F [Compound 5C] |  |  | 0 to 80% | 50 to 100% | 50 to 100%
10 | CC(C)=Cc1ccccc1N1C(=O)CS/C1=N\N=C\c1ccc(-c2ncn(-c3ccc(OC(F)(F)F)cc3)n2)cc1 [Compound 121C] |  |  | 0 to 80% | 50 to 100% | 50 to 100%
11 | COc1ccc(N2CCCS/C2=N\N=C\c2ccc(-c3ncn(-c4ccc(OC(F)(F)F)cc4)n3)cc2)c(C)c1 [Compound 192C] |  |  | 0 to 80% | 50 to 100% | 50 to 100%
12 | Cc1cccc(C)c1/N=C(/N/N=C/c1ccc(-c2ncn(-c3ccc(OC(F)(F)F)cc3)n2)cc1)SCOC(=O)C1CCCC1 [Compound 35C] |  |  | 0 to 80% | 50 to 100% | 50 to 100%
13 | COc1ccccc1N1CCS/C1=N\N=C\c1ccc(-c2ncn(-c3ccc(OC(F)(F)F)cc3)n2)cc1 [Compound 140C] |  |  | 0 to 80% | 50 to 100% | 50 to 100%
14 | CC(C)Cc1ccccc1N1CCCS/C1=N\N=C\c1ccc(-c2ncn(-c3ccc(OC(F)(F)F)cc3)n2)cc1 [Compound 193C] |  |  | 0 to 80% | 50 to 100% | 50 to 100%
15 | COc1cc(C)c(/N=C(/N/N=C/c2ccc(-c3ncn(-c4ccc(OC(F)(F)F)cc4)n3)cc2)SCOC(=O)C(C)C)c(C)c1 [Compound 27C] |  |  | 0 to 80% | 50 to 100% | 50 to 100%
16 | Cc1cccc(C)c1-n1c(-c2ccc(C(F)(F)F)cc2)cs/c1=N\N=C\c1ccc(-c2ncn(-c3ccc(OC(F)(F)F)cc3)n2)cc1 [Compound 79C] |  |  | 0 to 80% | 50 to 100% | 50 to 100%
17 | Cc1ccccc1N1/C(=N/N=C/c2ccc(-c3ncn(-c4ccc(OC(F)(F)F)cc4)n3)cc2)SCC1C (stereo not drawn) [Compound 154C] |  |  | 0 to 80% | 50 to 100% | 50 to 100%
18 | Cc1cccc(C)c1-n1c(-c2nccs2)cs/c1=N\N=C\c1ccc(-c2ncn(-c3ccc(OC(F)(F)F)cc3)n2)cc1 [Compound 75C] |  |  | 0 to 80% | 50 to 100% | 50 to 100%
19 | COc1cc(C)c(N2CCCS/C2=N\N=C\c2ccc(-c3ncn(-c4ccc(OC(F)(F)F)cc4)n3)cc2)c(C)c1 [Compound 181C] |  |  | 0 to 80% | 50 to 100% | 50 to 100%
20 | Cc1cccc(C)c1/N=C(/N/N=C/c1ccc(-c2ncn(-c3ccc(OC(F)(F)C(F)(F)F)cc3)n2)cc1)SCC(=O)O [Compound 49C] |  |  | 0 to 80% | 50 to 100% | 50 to 100%
21 | Cc1cccc(C)c1/N=C(/N/N=C/c1ccc(-c2ncn(-c3ccc(OC(F)(F)F)cc3)n2)cc1)SCc1cccc2nsnc12 [Compound 14C] |  |  | 0 to 80% | 50 to 100% | 50 to 100%
22 | Cc1cccc(C)c1/N=C(/N/N=C/c1ccc(-c2ncn(-c3ccc(OC(F)(F)F)cc3)n2)cc1)SCC(=O)NCC(NC(=O)OC(C)(C)C)C(=O)O (stereo not drawn) [Compound 59C] |  |  | 0 to 80% | 50 to 100% | 50 to 100%
23 | Cc1cccc(C)c1/N=C(/N/N=C/c1ccc(-c2ncn(-c3ccc(OC(F)(F)F)cc3)n2)cc1)SCc1ccc(S(=O)(=O)Nc2ccc(F)cc2)cc1 [Compound 18C] |  |  | 0 to 80% | 50 to 100% | 50 to 100%
24 | CCc1ccccc1N1CCS/C1=N\N=C\c1ccc(-c2ncn(-c3ccc(OC(F)(F)F)cc3)n2)cc1 [Compound 133C] |  |  | 0 to 80% | 50 to 100% | 50 to 100%
25 | Cc1cccc(C)c1-n1c(-c2cc(-c3ccc(Cl)cc3)no2)cs/c1=N\N=C\c1ccc(-c2ncn(-c3ccc(OC(F)(F)F)cc3)n2)cc1 [Compound 76C] |  |  | 0 to 80% | 50 to 100% | 50 to 100%
26 | CCc1cccc(C)c1N1C(=O)CS/C1=N\N=C\c1ccc(-c2ncn(-c3ccc(OC(F)(F)F)cc3)n2)cc1 [Compound 111C] |  |  | 0 to 80% | 50 to 100% | 50 to 100%
27 | Cc1cccc(C)c1/N=C(/N/N=C/c1ccc(-c2ncn(-c3ccc(OC(F)(F)F)cc3)n2)cc1)SCOC(=O)OC(C)C [Compound 24C] |  |  | 0 to 80% | 50 to 100% | 50 to 100%
